{"source": "ChEMBL document CHEMBL1138442", "about": "“Structural insight into the inhibition of human kynurenine aminotransferase I/glutamine transaminase K” (J Med Chem, 2009)", "key": {"[1]": {"biological_target": "T1, Kynurenine--oxoglutarate transaminase 1 (Homo sapiens) (UniProt Q16773)", "T1 sequence (whole entry)": "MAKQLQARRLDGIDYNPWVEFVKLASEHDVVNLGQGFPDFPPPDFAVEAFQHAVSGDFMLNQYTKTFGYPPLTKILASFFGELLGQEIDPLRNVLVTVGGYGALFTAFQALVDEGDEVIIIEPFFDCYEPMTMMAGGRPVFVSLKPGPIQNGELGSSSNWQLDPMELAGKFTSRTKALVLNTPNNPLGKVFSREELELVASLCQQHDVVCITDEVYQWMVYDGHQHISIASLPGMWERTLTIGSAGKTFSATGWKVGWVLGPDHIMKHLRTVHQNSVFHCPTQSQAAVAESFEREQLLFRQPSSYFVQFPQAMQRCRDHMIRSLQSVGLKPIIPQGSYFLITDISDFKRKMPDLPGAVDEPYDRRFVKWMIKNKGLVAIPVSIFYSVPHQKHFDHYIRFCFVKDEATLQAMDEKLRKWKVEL", "assay": "(§1) Inhibition of human recombinant KAT1 expressed in Sf9 cells"}, "[2]": {"biological_target": "T2, Kynurenine--oxoglutarate transaminase 1 (Homo sapiens, UniProt Q16773)", "T2 sequence (Q16773 whole entry)": "T1 sequence (whole entry)", "assay": "as §1"}, "[3]": {"biological_target": "T1, Kynurenine--oxoglutarate transaminase 1 (Homo sapiens)", "assay": "Inhibition of human recombinant KAT1 expressed in Sf9 cells assessed as decrease in enzyme activity at 25 % ligand concentration", "set-up": "scale not given: the % may be the effect or the level left"}}, "note": "Active and inactive are the calls of the source. The calls are words filed in the database; no cut-off is given here."}
{"smiles": "O=C(O)C(=O)Cc1c[nH]c2ccccc12", "values": [{"measurement": "Activity", "setting": "[1]", "result": "Active"}]}
{"smiles": "O=C(O)Cc1c[nH]c2ccccc12", "values": [{"measurement": "Activity", "setting": "[1]", "result": "Active"}]}
{"smiles": "O=C(O)CCc1c[nH]c2ccccc12", "note": "[INDOLYLPROPIONIC ACID]", "values": [{"measurement": "IC50", "setting": "[2]", "result": 140, "unit": "µM"}]}
{"smiles": "OCC(O)CO", "values": [{"measurement": "Activity", "setting": "[3]", "result": 10, "unit": "%"}]}
{"smiles": "N[C@@H](Cc1c[nH]c2ccccc12)C(=O)O", "values": [{"measurement": "Activity", "setting": "[1]", "result": "Active"}]}
{"smiles": "O=C(O)C(O)Cc1c[nH]c2ccccc12", "note": "(racemic)", "values": [{"measurement": "IC50", "setting": "[2]", "result": 220, "unit": "µM"}]}
{"smiles": "O=C(O)/C=C/c1c[nH]c2ccccc12", "values": [{"measurement": "Activity", "setting": "[1]", "result": "Active"}]}
